Patent US20240424115A1, “LONG-ACTING INTERLEUKIN-15 RECEPTOR AGONISTS AND RELATED IMMUNOTHERAPEUTIC COMPOSITIONS AND METHODS” (Nektar Therapeutics, priority 2017, published 2024)

Tested on: CT-26 cells
Test: CT-26 lung metastasis model
Conditions: for lung nodule inhibition: Example 19, one week apart
Protocol: At day 0, 6-8 week-old female Balb/c mice were inoculated with 1×10^5 mouse CT-26 cells by tail vein injection. On day 1, post 24 h of CT-26 cells being administered, mice were divided into ten groups. […] Each group was assigned one intervention as follows: vehicle, phosphate buffered saline (Group A); native IL-15 alone (Group B); Conjugate 2 at a dose of 0.03 mg/kg (Group C); Conjugate 2 at a dose of 0.1 mg/kg (Group D); Conjugate 2 at a dose of 0.3 mg/kg (Group E); Conjugate 2 at a dose of 1.0 mg/kg (Group F); Conjugate 2 at a dose of 3.0 mg/kg (Group G); for Conjugate 1: vehicle, phosphate buffered saline (Group H); Conjugate 1 at a dose of 0.03 mg/kg (Group I) and Conjugate 1 at a dose of 0.3 mg/kg (Group J). Animals were dosed at days 1, 5, and 10.
Post 13 days from the date of CT-26 tumor cells administration, mice were anesthetized, and blood and spleen cells were collected for further analysis of immunophenotype markers, while lungs were fixed for 24-48 h in Bouins solution containing picric acid and formaldehyde.
The number of lung tumor nodules were counted under a dissection per each lung and mean of lung nodules for each group was determined. The statistical significance was also obtained between the vehicle group vs intervention groups using unpaired students t test.
Balb/c mice received tail vein injection of 1×10^5 CT-26 colorectal carcinoma cells. The following day, mice (n=9/group) were treated weekly, twice, with Conjugate 1 (0.03 or 0.3 mg/kg) or vehicle control. Five days after the second injection, mice were humanely sacrificed and lung nodules were counted.
CT-26 mice (n=7-11/group) were injected with anti-asialo GM1 to deplete NK cells or two different controls (lgG or PBS), then injected with 1×10^5 CT-26 tumor cells. Mice were then treated with Conjugate 2 at 0.3 mg/kg dosed on days 1, 5 and 10 post tumor cell injection or vehicle control. Mice were sacrificed and lung nodules were counted three days after the last day of treatment.

mono-mPEG-SBA40K-IL-15 [Conjugate 1]
survival (0.3 mg/kg, followed 32 days post tumor cell injection, vs vehicle): increased survival significantly
reduction in lung metastases in comparison to vehicle (Example 13, i.v. days 1, 5, 10, dose not stated): 85%
lung nodule inhibition (0.03 mg/kg dosed twice): 40%
lung nodule inhibition (0.3 mg/kg dosed twice): 80%
